Where a name gives a salt, the structure may show the parent alone. Read-outs that look alike come from different tables or passages of the source. Where a SMILES comes first, the peptide text is derived from it. The star is where a group is joined. Cbz = O=C(OCc1ccccc1)*
How the values were obtained:
[1] = target: T1, SARS-CoV-2 PLpro (nsp3 1564–1878) (Severe acute respiratory syndrome coronavirus 2, UniProt P0DTD1); test: biochemical; design: FRET-quenched peptide (Pro3) cleavage by PLpro, 10 min pre-incubation, slope over 20 min, normalised to no-compound control; details: high concentration screen, read-out: % of control remaining
[2] = target: T1, SARS-CoV-2 PLpro (nsp3 1564–1878); test: biochemical; design: FRET-quenched peptide (Pro3) cleavage by PLpro, 10 min pre-incubation, slope over 20 min, normalised to no-compound control; details: low concentration screen, read-out: % of control remaining

COC(=O)c1ccc(O)c2nc3c(C=O)c(O)cc(O)c3nc12 [Lomofungin]
remaining activity at 3.75 µM ([1]; Well no.=1551): 102% | remaining activity at 1.25 µM ([2]; Well no.=1551): 102%

CC(C)(S)[C@H](N)C(=O)O [L-Penicillamine]
remaining activity at 3.75 µM ([1]; Well no.=3332): 99.5% | remaining activity at 1.25 µM ([2]; Well no.=3332): 100%

CCN1/C(=C/C(C)=O)Sc2ccc(OC)cc21 [Cdc2-Like Kinase Inhibitor, TG003]
remaining activity at 3.75 µM ([1]; Well no.=2410): 109% | remaining activity at 1.25 µM ([2]; Well no.=2410): 106%

CN(C)CCC=C1c2ccccc2CCc2ccccc21 [Amitriptyline hydrochloride]
remaining activity at 3.75 µM ([1]; Well no.=150): 98.5% | remaining activity at 1.25 µM ([2]; Well no.=150): 103%

N#C/C(=C\c1ccc(O)c(O)c1)C(N)=S [Tyrphostin 47]
remaining activity at 3.75 µM ([1]; Well no.=1276): 99.6% | remaining activity at 1.25 µM ([2]; Well no.=1276): 97.8%

CCCN[C@@H]1CCc2nc(N)sc2C1 [Dexpramipexole (dihydrochloride)]
remaining activity at 3.75 µM ([1]; Well no.=7181): 93.6% | remaining activity at 1.25 µM ([2]; Well no.=7181): 98.2%

C[C@H]1c2cccc(O)c2C(=O)C2=C(O)[C@]3(O)C(=O)C(C(N)=O)=C(O)[C@@H](N(C)C)[C@@H]3[C@@H](O)[C@@H]21 [Doxycycline]
remaining activity at 3.75 µM ([1]; Well no.=2022): 107% | remaining activity at 1.25 µM ([2]; Well no.=2022): 106%

O=C1/C(=C/c2ccc(O)cc2)Oc2cc(O)ccc21 [Hispidol]
remaining activity at 3.75 µM ([1]; Well no.=6966): 93% | remaining activity at 1.25 µM ([2]; Well no.=6966): 95.6%

CC(C)[C@H](NC(=O)OCc1ccccc1)C(=O)N[C@H](C=O)Cc1ccccc1 [MDL 28170] (Cbz-Val-Phe-aldehyde)
remaining activity at 3.75 µM ([1]; Well no.=790): 105% | remaining activity at 1.25 µM ([2]; Well no.=790): 106%

CC(NC(=O)c1ccccc1/N=C/c1c(O)ccc2ccccc12)c1ccccc1 (stereo not drawn) [Sirtinol]
remaining activity at 3.75 µM ([1]; Well no.=4783): 99.9% | remaining activity at 1.25 µM ([2]; Well no.=4783): 103%

C[C@@]12CCc3occc3[C@H]1CC[C@@]13C[C@@H](CC[C@H]12)[C@@](O)(CO)C3 [Cafestol]
remaining activity at 3.75 µM ([1]; Well no.=3523): 96.8% | remaining activity at 1.25 µM ([2]; Well no.=3523): 102%

COc1ccc2c3c1O[C@H]1C[C@@H](O)C=C[C@@]31CCN(C)C2 [Galanthamine]
remaining activity at 3.75 µM ([1]; Well no.=1707): 101% | remaining activity at 1.25 µM ([2]; Well no.=1707): 105%

O=S(=O)(c1cccc2cnccc12)N1CCNCC1 [HA-100]
remaining activity at 3.75 µM ([1]; Well no.=478): 101% | remaining activity at 1.25 µM ([2]; Well no.=478): 102%

C=CCNC(N)=S [Allylthiourea]
remaining activity at 3.75 µM ([1]; Well no.=5076): 106% | remaining activity at 1.25 µM ([2]; Well no.=5076): 106%

O=C(O)CCCC[C@@H]1CCSS1 [Lipoic acid]
remaining activity at 3.75 µM ([1]; Well no.=6915): 104% | remaining activity at 1.25 µM ([2]; Well no.=6915): 105%

COc1cc2ncnc(Sc3nnc(C)s3)c2cc1OC [SKLB1002]
remaining activity at 3.75 µM ([1]; Well no.=5943): 102% | remaining activity at 1.25 µM ([2]; Well no.=5943): 102%

COc1ccc([C@@H]2CC(=O)c3c(O)cc(O[C@@H]4O[C@H](CO)[C@@H](O)[C@H](O)[C@H]4O[C@@H]4O[C@@H](C)[C@H](O)[C@@H](O)[C@H]4O)cc3O2)cc1O [Neohesperidin]
remaining activity at 3.75 µM ([1]; Well no.=3444): 98.5% | remaining activity at 1.25 µM ([2]; Well no.=3444): 98.8%

CCCCC#Cc1nc(N)c2ncn([C@@H]3O[C@H](C(=O)NCC)[C@@H](O)[C@H]3O)c2n1 [HE-NECA]
remaining activity at 3.75 µM ([1]; Well no.=756): 98.5% | remaining activity at 1.25 µM ([2]; Well no.=756): 97%

Cc1cccc([C@H](C)c2c[nH]cn2)c1C [Dexmedetomidine]
remaining activity at 3.75 µM ([1]; Well no.=5319): 95.8% | remaining activity at 1.25 µM ([2]; Well no.=5319): 94.4%

CCOC(=O)c1cnc(C#Cc2ccc3c(c2)C(C)(C)CC[S+]3[O-])nc1 (stereo not drawn) [WYC-209]
remaining activity at 3.75 µM ([1]; Well no.=7204): 90.8% | remaining activity at 1.25 µM ([2]; Well no.=7204): 92.4%

Clc1cccc(Cl)c1NC1=NCCN1 [Clonidine hydrochloride]
remaining activity at 3.75 µM ([1]; Well no.=138): 98.8% | remaining activity at 1.25 µM ([2]; Well no.=138): 95.3%

NCC(=O)N[C@@H](CCCN=C(N)N)C(=O)NCC(=O)N[C@@H](CC(=O)O)C(=O)N[C@@H](CO)C(=O)N1CCC[C@H]1C(=O)O [GRGDSP (TFA)]
remaining activity at 3.75 µM ([1]; Well no.=7558): 109% | remaining activity at 1.25 µM ([2]; Well no.=7558): 102%

NS(=O)(=O)c1ccccc1 [Benzenesulfonamide]
remaining activity at 3.75 µM ([1]; Well no.=8398): 101% | remaining activity at 1.25 µM ([2]; Well no.=8398): 97.6%

O=C(Cc1ccc(-c2ccc(OCCN3CCOCC3)cc2)cn1)NCc1ccccc1 [KX2-391]
remaining activity at 3.75 µM ([1]; Well no.=5350): 94.3% | remaining activity at 1.25 µM ([2]; Well no.=5350): 94.7%

Clc1ccc2nsnc2c1NC1=NCCN1 [Tizanidine (hydrochloride)]
remaining activity at 3.75 µM ([1]; Well no.=6612): 96% | remaining activity at 1.25 µM ([2]; Well no.=6612): 105%

Cn1cc(C2=C(c3cn(CCCSC(=N)N)c4ccccc34)C(=O)NC2=O)c2ccccc21 [Ro 31-8220 mesylate - 3-[3-[2,5-Dihydro-4-(1-methyl-1H-indol-3-yl)-2,5-dioxo-1H-pyrrol-3-yl]-1H-indol-1-yl]propyl carbamimidothioic acid ester mesylate]
remaining activity at 3.75 µM ([1]; Well no.=2482): 102% | remaining activity at 1.25 µM ([2]; Well no.=2482): 104%

CNC(=O)c1cc(Oc2ccc(NC(=O)Nc3ccc(Cl)c(C(F)(F)F)c3)cc2)ccn1 [Sorafenib]
remaining activity at 3.75 µM ([1]; Well no.=2941): 97.8% | remaining activity at 1.25 µM ([2]; Well no.=2941): 101%

CC(C)(CO)c1cc2cc(NC(=O)C3(c4ccc5c(c4)OC(F)(F)O5)CC3)c(F)cc2n1C[C@@H](O)CO [VX-661]
remaining activity at 3.75 µM ([1]; Well no.=4780): 94.1% | remaining activity at 1.25 µM ([2]; Well no.=4780): 97%

C[C@@H]1CN([C@H]2CC[C@](C#N)(c3ccc(F)cc3)CC2)CC[C@]1(C(=O)O)c1ccccc1 [Levocabastine.HCl]
remaining activity at 3.75 µM ([1]; Well no.=2058): 99.2% | remaining activity at 1.25 µM ([2]; Well no.=2058): 97.6%

CN1[C@@H]2C[C@@H](OC(=O)[C@H](CO)c3ccccc3)C[C@H]1[C@@H]1O[C@@H]12 [Scopolamine (hydrobromide)]
remaining activity at 3.75 µM ([1]; Well no.=6670): 105% | remaining activity at 1.25 µM ([2]; Well no.=6670): 102%

Cn1c(=O)c2c(ncn2CC(=O)O)n(C)c1=O [Acefylline]
remaining activity at 3.75 µM ([1]; Well no.=8081): 100% | remaining activity at 3.75 µM ([1]; Well no.=8491): 103% | remaining activity at 1.25 µM ([2]; Well no.=8081): 102% | remaining activity at 1.25 µM ([2]; Well no.=8491): 105%

CCn1c(-c2nonc2N)nc2c(C#CC(C)(C)O)ncc(OC[C@H]3CCCNC3)c21 [GSK690693]
remaining activity at 3.75 µM ([1]; Well no.=3041): 94.4% | remaining activity at 1.25 µM ([2]; Well no.=3041): 97.7%

CCC1=C[C@@H]2CN(C1)Cc1c([nH]c3ccccc13)[C@@](C(=O)OC)(c1cc3c(cc1OC)N(C)[C@H]1[C@@](O)(C(=O)OC)[C@H](OC(C)=O)[C@]4(CC)C=CCN5CC[C@]31[C@@H]54)C2 [Vinorelbine]
remaining activity at 3.75 µM ([1]; Well no.=2029): 108% | remaining activity at 3.75 µM ([1]; Well no.=3763): 100% | remaining activity at 1.25 µM ([2]; Well no.=2029): 104% | remaining activity at 1.25 µM ([2]; Well no.=3763): 96.8%

O=C(C[S+]([O-])C(c1ccccc1)c1ccccc1)NO (stereo not drawn) [Adrafinil]
remaining activity at 3.75 µM ([1]; Well no.=6233): 94.6% | remaining activity at 1.25 µM ([2]; Well no.=6233): 102%

Reference: article PMC8286840, “Identifying SARS-CoV-2 antiviral compounds by screening for small molecule inhibitors of Nsp3 papain-like protease” (Biochemical Journal, 2021)
